“Also recorded” adds a separate entry of the source. Oligonucleotides are written 5' to 3', each unit as a sugar letter and its base; * is a phosphorothioate linkage, no mark a phosphodiester; rarer units and linkages stand in square brackets, end groups in braces. Plain capitals give the bases only. d = 2'-deoxy (DNA)
How the values were obtained:
Type in all cases: cell-based, human
[1] = test system: TC620 cells; test: Trypan blue assay (cell death) in TC620 cells
Method: At 100 nM, 200 nM, and 400 nM, the percentage of dead cells was 28%, 36%, and 62%, respectively. The percentages of Trypan blue-positive cells treated with 200 nM (8%) and 400 nM (7.5%) mismatched oligonucleotide 1132 were similar to the lipofectin control (6%). Cells were treated with lipofectin, survivin antisense oligonucleotide 904 at 100, 200, or 400 nM, or mismatched oligonucleotide 1132 at 200 nM or 400 nM concentrations. Cells were harvested 48 hours after the treatment and stained with 0.04% Trypan blue as described for FIG. 4.
To further examine whether cell death induced by treatment of TC620 cells with survivin antisense oligonucleotides occurs via a caspase-dependent mechanism, another experiment was performed to investigate the effect of a caspase inhibitor on cell death. […] TC620 cells were treated with lipofectin or 600 nM survivin antisense oligonucleotide 904, 906, or mismatch oligonucleotide 1132 alone, or co-treated with 20 μM zVAD-fmk.
Cells were harvested 48 hours after survivin antisense treatment, stained with 0.04% Trypan blue (GIBCO), and counted on a hemocytometer. The number of Trypan blue positive cells relative to the total number of cells in each field was obtained and the data were expressed as a percentage of dead cells relative to the total cell number. Individual experiments were performed in triplicate. MSN cell studies were performed three times, while studies in TC620 cells were performed once.

[2] = test system: TC620 cells; test: TUNEL assay in TC620 cells
Method: To confirm the results of the PARP data that survivin down-regulation induced apoptosis, a TUNEL assay was performed. The TUNEL reaction preferentially labels cleaved genomic DNA generated during apoptosis, by the addition of fluorescein dUTP at strand breaks. The TUNEL assay was performed on lipofectin, mismatch oligonucleotide 1132, and survivin antisense oligonucleotide-treated TC620 cells. The percentages of TUNEL-positive cells treated with survivin antisense oligonucleotides 904 or 906 at 400 nM concentration were 52% and 54%, respectively. At 600 nM, 63% of survivin antisense oligonucleotide 904- and 906-treated TC620 cells were TUNEL-positive. Only 4% of the cells were TUNEL-positive in the presence of lipofectin or mismatch oligonucleotide 1132.
The TUNEL assay was performed to assess apoptotic cell death in survivin antisense oligonucleotide-treated TC620 cells using the In Situ Cell Death Detection Kit, Fluorescein (Roche Molecular Biochemicals, Indianapolis, Ind.). The TUNEL reaction preferentially labels cleaved genomic DNA generated during apoptosis, by the addition of fluorescein dUTP at strand breaks. Lipofectin, mismatch oligonucleotide 1132 or survivin antisense oligonucleotide-treated TC620 cells were fixed and permeabilized as described for PI staining. Cells were washed and incubated in the TUNEL reaction mixture, prepared according to the manufacture's recommendations, for 1 h at 37° C. Omission of the terminal deoxynucleotidyl transferase in the label solution served as a negative control for the TUNEL fluorescence staining. Cells were washed twice and counterstained with the DNA specific dye DAPI (1:1000 of a 1 mg/ml stock; 15 min at room temperature). Cells were examined with an Olympus 1×70 inverted microscope. For each treatment 15 random, 40×objective fields consisting of about 1000 cells were examined in duplicate chamber slides. TUNEL-positive nuclei were expressed as a percent of the total number of cells per individual field.

[3] = test system: TC620 cells; test: Propidium iodide staining, nuclear morphology of TC620 cells; conditions: for nuclear morphology by PI staining: 600 nM (FIG. 7); for number of cells in metaphase, with zVAD-fmk compared with oligonucleotide alone: 600 nM plus zVAD-fmk (FIG. 8B)
Method: Propidium iodide (PI) staining was performed to investigate changes in nuclear morphology caused by treatment of TC620 cells with survivin antisense oligonucleotides. […] TC620 cells were treated with lipofectin (FIG. 7A), or 600 nM mismatch oligonucleotide 1132 (FIG. 7B), survivin antisense oligonucleotide 904 (FIGS. 7C and 7E), or 906 (FIG. 7D), and stained with PI. Quantification results for TC620 cells treated with 600 nM survivin antisense oligonucleotide 904, 906, or mismatch oligonucleotide 1132, alone or in the presence of zVAD-fmk, are shown in FIGS. 8A-B. Cells in metaphase were identified as those with chromosomes aligned on the metaphase plate.
(§1) Survivin antisense oligonucleotide-treated cells were fixed with 4% paraformaldehyde for 30 min at room temperature, washed with 1×TBS, permeabilized with 0.1% Triton X-100 for 30 min and treated with 10 μg/ml DNasc free RNase A (Sigma) for 60 min. Nuclei were stained with 200 μg /ml PI for 30 min at 4° C. and washed twice with 1×TBS. Nuclear morphology was assessed on an inverted Olympus 1×70 fluorescence microscope equipped with phase and epifluorescence optics. For each treatment about 600 nuclei were scored as normal, condensed (apoptotic), or abnormal (macronuclei, multilobed) on 15 random, 40×objective fields in duplicate. Quantification results are mean±SEM obtained from two independent experiments performed in duplicate.

[4] = test system: MSN cells; test: Propidium iodide staining, nuclear morphology of MSN cells; conditions: for nuclear morphology by PI staining: 600 nM (FIG. 9); for percentage of cells with abnormal nuclear morphology by PI staining: 600 nM alone (FIG. 9G)
Method: Propidium iodide (PI) staining and phase microscopy were used to assess the nuclear morphology of the survivin antisense oligonucleotide-treated MSN cells. MSN cells were treated with lipofectin (FIG. 9A), or 600 nM mismatch oligonucleotide 1132 (FIG. 9B) or survivin antisense oligonucleotide 904 (FIGS. 9C and 9E) or 906 (FIG. 9D), and stained with PI. To assess the effect on nuclear morphology of co-administration of survivin antisense oligonucleotide and the caspases inhibitor zVAD-fmk, MSN cells were treated with 600 nM survivin antisense oligonucleotide 904, 906, or mismatch oligonucleotide 1132 alone, or in the presence of 20 μM zVAD-fmk, and stained with PI (FIG. 9G).
as §1

[5] = 600 nM co-treated with 20 μM zVAD-fmk (FIG. 6B)

| Substance | percentage of dead (Trypan blue-positive) cells ([1]; 200 nM, 48 hours (FIG. 6A)) | percentage of dead (Trypan blue-positive) cells ([1]; 400 nM, 48 hours (FIG. 6A)) | percentage of TUNEL-positive cells ([2]; concentration not given) | nuclear morphology by PI staining [3] | percentage of apoptotic cells (chromatin fragmentation, apoptotic bodies) by PI staining ([3]; 600 nM (FIG. 8A)) | percentage of cells with abnormal (multiple multilobed) nuclei by PI staining ([3]; 600 nM (FIG. 8A)) | number of cells in metaphase, with zVAD-fmk compared with oligonucleotide alone [3] | nuclear morphology by PI staining [4] | percentage of Trypan blue positive cells ([1]; 600 nM alone (FIG. 6B)) | percentage of Trypan blue positive cells [1, 5] | percentage of TUNEL-positive cells ([2]; 400 nM) | percentage of TUNEL-positive cells ([2]; 600 nM) | percentage of cells with abnormal nuclear morphology by PI staining [4] | percentage of dead (Trypan blue-positive) cells ([1]; 100 nM, 48 hours (FIG. 6A)) | cell death, Trypan blue positive cells ([1]; 48 hours (FIG. 6A)) |
| --- | --- | --- | --- | --- | --- | --- | --- | --- | --- | --- | --- | --- | --- | --- | --- |
| d(GCACCTAGTCTCCCTGCACC) (DNA, all phosphorothioate, methylation of C not given here) [Oligo 1132, mismatched phosphorothioate control oligonucleotide, not complementary to survivin mRNA, reference compound] | 8% | 7.5% | 4% | normal nuclear morphology | 2% | 1% | did not affect the number of cells in metaphase | normal nuclear morphology |  |  |  |  |  |  |  |
| d(GCTTCCCAGTCACATCCTGT) (antisense dG*dC*dT*dT*dC*dC*dC*dA*dG*dT*dC*dA*dC*dA*dT*dC*dC*dT*dG*dT) [Oligo 906, 20-mer phosphorothioate survivin antisense oligonucleotide, complementary to survivin mRNA 11897-11916] |  |  |  | abnormal macronuclei that are multilobed |  |  | approximate two-fold increase | abnormal multiple multilobed nuclei | 67% | 15% | 54% | 63% | 31% |  |  |
| d(TCTTGGCTCTTTCTCTGTCC) (antisense dT*dC*dT*dT*dG*dG*dC*dT*dC*dT*dT*dT*dC*dT*dC*dT*dG*dT*dC*dC) [Oligo 904, 20-mer phosphorothioate survivin antisense oligonucleotide, complementary to survivin mRNA 5248-5267] | 36% | 62% |  | apoptotic nuclei; also recorded: abnormal macronuclei that are multilobed |  |  | approximate two-fold increase | abnormal multiple multilobed nuclei | 70% | 11% | 52% | 63% | 27% | 28% | concentration-dependent increase in Trypan blue-positive (dead) cells; also recorded: dose-dependent increase in cell death |
